*1 amine or outer side, *2 acyl side, *3 side chain or, on linkers, in order; H or OH if unused. Where a SMILES comes first, the peptide text is derived from it. Bridges are numbered along the chain shown (N, C = ends). [ ]: non-standard residue; d: D form. The star is where a group is joined. X1 = COc1cc2cc(c1Cl)N(C)C(=O)C[C@H](OC(=O)[C@H](C)N(C)C(=O)CCSSC(C)CCC(=O)*)[C@]1(C)O[C@H]1[C@H](C)[C@@H]1C[C@@](O)(NC(=O)O1)[C@H](OC)/C=C/C=C(\C)C2; 1Nal = N[C@@H](Cc1cccc2ccccc12)C(=O)O; TBMB = c1c(C[*:1])cc(C[*:3])cc1C[*:2]; Tle = CC(C)(C)[C@H](N)C(=O)O; βAla = NCCC(=O)O; Sar = CNCC(=O)O
Experiments:
MDA-MB-231 xenograft = experiment: In vivo efficacy of BT1718 in MDA-MB-231 xenograft; design: species or system Mus Musculus; key to Best response at 10 mg/kg: CR complete response; PR partial response
Protocol: The objective of this study was to evaluate the in vivo anti-tumor efficacy of BT1718in treatment of HT1080, NCI-H292, NCI-H1975, MDA-MB-231, HCC1806, RPMI2650, HCT-15, HT-29 and SNU-16 xenograft in BALB/c nude mice.
The HT1080, NCI-H292, NCI-H1975, MDA-MB-231, HCC1806, RPMI2650, HCT-15, HT-29 and SNU-16 tumor cells were maintained in vitro as a monolayer culture in medium supplemented with 10% heat inactivated fetal bovine serum at 37° C. in an […]. The tumor cells will be routinely subcultured twice weekly by trypsin-EDTA treatment. The cells growing in an exponential growth phase will be harvested and counted for tumor inoculation.
Mouse was inoculated subcutaneously at the right flank with tumor cells for tumor development. The animals were randomized and treatment was started when the average tumor reaches certain volume for the efficacy study, the inoculating cell amounts and starting tumor size were shown as below in Table 9. The test article administration and the animal numbers in each group were shown in the experimental design in Table 10.
All the procedures related to animal handling, care and the treatment in the study were performed according to the guidelines of the Association for Assessment and Accreditation of Laboratory Animal Care (AAALAC). At the time of routine monitoring, the animals were daily checked for any effects of tumor growth and treatments on normal behavior such as mobility, food and water consumption (by looking only), body weight gain/loss (body weights were measured every day), eye/hair matting and any other abnormal effect as stated in the protocol. Death and observed clinical signs were recorded on the basis of the numbers of animals within each subset.
The major endpoint was to see if the tumor growth could be delayed or mice could be cured. Tumor size was measured three times weekly in two dimensions using a caliper, and the volume was expressed in mm^3 using the formula: V=0.5 a×b^2 where a and b are the long and short diameters of the tumor, respectively. The tumor size was then used for calculations of T/C value. The T/C value (in percent) is an indication of antitumor effectiveness; T and C are the mean volumes of the treated and control groups, respectively, on a given day.
TGI was calculated for each group using the formula: TGI (%)=[1−(Ti−T0)/(Vi−V0)]×100; Ti is the average tumor volume of a treatment group on a given day, T0 is the average tumor volume of the treatment group on the day of treatment start, Vi is the average tumor volume of the vehicle control group on the same day with Ti, and V0 is the average tumor volume of the vehicle group on the day of treatment start.
Summary statistics, including mean and the standard error of the mean (SEM), are provided for the tumor volume of each group at each time point.
Statistical analysis of difference in tumor volume among the groups was conducted on the data obtained at the best therapeutic time point after the final dose.
A one-way ANOVA was performed to compare tumor volume among groups, and when a significant F-statistics (a ratio of treatment variance to the error variance) was obtained, comparisons between groups were carried out with Games-Howell test. All data were analyzed using Prism. P<0.05 was considered to be statistically significant.

[1] = Preliminary metabolism studies; type: in vivo
From the text: Efficacy in this model was reduced in the conjugates containing the least cleavable linkers.

[2] = MDA-MB-231, 10 mpk, biw, day 14

COc1cc2cc(c1Cl)N(C)C(=O)C[C@H](OC(=O)[C@H](C)N(C)C(=O)CCSSC(C)CCC(=O)NCCC(=O)N(C)CC(=O)N(C)CC(=O)N(C)CC(=O)N(C)CC(=O)N(C)CC(=O)N(C)CC(=O)N(C)CC(=O)N(C)CC(=O)N(C)CC(=O)N(C)CC(=O)N[C@@H](C)C(=O)N[C@H]1CSCc3cc4cc(c3)CSC[C@H](NC(=O)[C@@H](C)NC(=O)[C@H](Cc3cccc5ccccc35)NC(=O)[C@H](CCC(=O)O)NC(=O)[C@H](CC(N)=O)NC(=O)[C@@H](C)NC1=O)C(=O)N[C@@H](CCC(=O)O)C(=O)N[C@@H](CC(=O)O)C(=O)N[C@@H](Cc1ccccc1)C(=O)N[C@@H](Cc1ccc(O)cc1)C(=O)N[C@@H](CC(=O)O)C(=O)N[C@@H](C(C)(C)C)C(=O)N[C@H](C(N)=O)CSC4)[C@]1(C)O[C@H]1[C@H](C)[C@@H]1C[C@@](O)(NC(=O)O1)[C@H](OC)/C=C/C=C(\C)C2 (stereo partly drawn) [BT1718] ({X1-βAla}-[Sar][Sar][Sar][Sar][Sar][Sar][Sar][Sar][Sar][Sar]AC[dA]NE[1Nal][dA]CEDFYD[Tle]C-NH2; linker 12-18-25 via TBMB (inferred))
tumor behaviour on resumed treatment (MDA-MB-231 xenograft; 10 mg/kg biw re-treatment): slow re-growth
Body Weight (MDA-MB-231 xenograft; 1 mpk biw, day 0): 23.4 ± 0.5 g
Tumor Volume (MDA-MB-231 xenograft; 1 mpk biw, day 0): 187 ± 6 mm^3
Body Weight (MDA-MB-231 xenograft; 1 mpk biw, day 2): 23.3 ± 0.6 g
Tumor Volume (MDA-MB-231 xenograft; 1 mpk biw, day 2): 288 ± 25 mm^3
Body Weight (MDA-MB-231 xenograft; 1 mpk biw, day 4): 23.3 ± 0.6 g
Tumor Volume (MDA-MB-231 xenograft; 1 mpk biw, day 4): 435 ± 25 mm^3
Body Weight (MDA-MB-231 xenograft; 1 mpk biw, day 7): 24.6 ± 0.5 g
Tumor Volume (MDA-MB-231 xenograft; 1 mpk biw, day 7): 636 ± 53 mm^3
Body Weight (MDA-MB-231 xenograft; 1 mpk biw, day 9): 24.6 ± 0.6 g
Tumor Volume (MDA-MB-231 xenograft; 1 mpk biw, day 9): 822 ± 117 mm^3
Body Weight (MDA-MB-231 xenograft; 1 mpk biw, day 11): 24.1 ± 0.1 g
Tumor Volume (MDA-MB-231 xenograft; 1 mpk biw, day 11): 979 ± 51 mm^3
Body Weight (MDA-MB-231 xenograft; 1 mpk biw, day 14): 24.9 ± 0.5 g
Tumor Volume (MDA-MB-231 xenograft; 1 mpk biw, day 14): 1221 ± 62 mm^3
Body Weight (MDA-MB-231 xenograft; 3 mpk biw, day 0): 23.0 ± 0.9 g
Tumor Volume (MDA-MB-231 xenograft; 3 mpk biw, day 0): 187 ± 11 mm^3
Body Weight (MDA-MB-231 xenograft; 3 mpk biw, day 2): 22.5 ± 1.0 g
Tumor Volume (MDA-MB-231 xenograft; 3 mpk biw, day 2): 281 ± 23 mm^3
Body Weight (MDA-MB-231 xenograft; 3 mpk biw, day 4): 22.3 ± 1.0 g
Tumor Volume (MDA-MB-231 xenograft; 3 mpk biw, day 4): 389 ± 21 mm^3
Body Weight (MDA-MB-231 xenograft; 3 mpk biw, day 7): 23.8 ± 1.1 g
Tumor Volume (MDA-MB-231 xenograft; 3 mpk biw, day 7): 547 ± 38 mm^3
Body Weight (MDA-MB-231 xenograft; 3 mpk biw, day 9): 23.8 ± 1.1 g
Tumor Volume (MDA-MB-231 xenograft; 3 mpk biw, day 9): 729 ± 74 mm^3
Body Weight (MDA-MB-231 xenograft; 3 mpk biw, day 11): 23.6 ± 1.1 g
Tumor Volume (MDA-MB-231 xenograft; 3 mpk biw, day 11): 829 ± 79 mm^3
Body Weight (MDA-MB-231 xenograft; 3 mpk biw, day 14): 23.9 ± 1.3 g
Tumor Volume (MDA-MB-231 xenograft; 3 mpk biw, day 14): 1021 ± 65 mm^3
Body Weight (MDA-MB-231 xenograft; 10 mpk biw, day 0): 23.3 ± 1.0 g
Tumor Volume (MDA-MB-231 xenograft; 10 mpk biw, day 0): 187 ± 10 mm^3
Body Weight (MDA-MB-231 xenograft; 10 mpk biw, day 2): 22.9 ± 1.3 g
Tumor Volume (MDA-MB-231 xenograft; 10 mpk biw, day 2): 270 ± 25 mm^3
Body Weight (MDA-MB-231 xenograft; 10 mpk biw, day 4): 22.2 ± 0.9 g
Tumor Volume (MDA-MB-231 xenograft; 10 mpk biw, day 4): 312 ± 27 mm^3
Body Weight (MDA-MB-231 xenograft; 10 mpk biw, day 7): 23.3 ± 1.2 g
Tumor Volume (MDA-MB-231 xenograft; 10 mpk biw, day 7): 294 ± 31 mm^3
Body Weight (MDA-MB-231 xenograft; 10 mpk biw, day 9): 23.0 ± 1.1 g
Tumor Volume (MDA-MB-231 xenograft; 10 mpk biw, day 9): 248 ± 23 mm^3
Body Weight (MDA-MB-231 xenograft; 10 mpk biw, day 11): 21.6 ± 1.0 g
Tumor Volume (MDA-MB-231 xenograft; 10 mpk biw, day 11): 204 ± 19 mm^3
Body Weight (MDA-MB-231 xenograft; 10 mpk biw, day 14): 24.3 ± 1.1 g
Tumor Volume (MDA-MB-231 xenograft; 10 mpk biw, day 14): 158 ± 20 mm^3
Best response at 10 mg/kg (MDA-MB-231 xenograft; MDA-MB-231, 10 mg/kg): CR
TGI (MDA-MB-231 xenograft; MDA-MB-231, 1 mpk, biw, day 14): 7.6%
Tumor Volume (MDA-MB-231 xenograft; MDA-MB-231, 1 mpk, biw, day 14): 1221 ± 62 mm^3
TGI (MDA-MB-231 xenograft; MDA-MB-231, 3 mpk, biw, day 14): 25.5%
Tumor Volume (MDA-MB-231 xenograft; MDA-MB-231, 3 mpk, biw, day 14): 1021 ± 65 mm^3
TGI (MDA-MB-231 xenograft; [2]): 102.6%
Tumor Volume (MDA-MB-231 xenograft; [2]): 158 ± 20 mm^3
Minimally Effective Dose IV BIW (MDA-MB-231 xenograft; MDA-MB-231, dose leading to tumor-stasis): <10 mg/kg
dosing suspension until re-growth to 150 mm3 (MDA-MB-231 xenograft; after 10 mg/kg biw): 3 weeks
tumor volume after regression (MDA-MB-231 xenograft; after 2-3 weeks 10 mg/kg biw): below 50 mm3
route of excretion [1]: excreted mainly through the kidney in urine

Source: patent US10441663B2, “Methods for treating cancer” (Bicycle Therapeutics Limited, priority 2016, dated 2019)
